Target: T1, Piezo1 (Mus musculus, UniProt E2JF22)
T1 construct: native full-length channel in primary cultured cholangiocytes (DIV5) from intrahepatic bile duct units; monomer ~290 kD band reported for GFP-tagged protein
Assay: Fura-2 ratiometric Ca2+ imaging
Format: cell-based
Details: agonist; native DIV5 mouse cholangiocytes, 2.5 mM external Ca2+; Yoda1 without effect in Piezo1-knockout HEK293T cells; read-out: apparent EC50
Text: Fura-2 ratiometric Ca2+ imaging on Piezo1 | Concentration-response profile for Yoda1 in mouse DIV5 cholangiocytes, yielding apparent EC50

T1 sequence (E2JF22 whole entry): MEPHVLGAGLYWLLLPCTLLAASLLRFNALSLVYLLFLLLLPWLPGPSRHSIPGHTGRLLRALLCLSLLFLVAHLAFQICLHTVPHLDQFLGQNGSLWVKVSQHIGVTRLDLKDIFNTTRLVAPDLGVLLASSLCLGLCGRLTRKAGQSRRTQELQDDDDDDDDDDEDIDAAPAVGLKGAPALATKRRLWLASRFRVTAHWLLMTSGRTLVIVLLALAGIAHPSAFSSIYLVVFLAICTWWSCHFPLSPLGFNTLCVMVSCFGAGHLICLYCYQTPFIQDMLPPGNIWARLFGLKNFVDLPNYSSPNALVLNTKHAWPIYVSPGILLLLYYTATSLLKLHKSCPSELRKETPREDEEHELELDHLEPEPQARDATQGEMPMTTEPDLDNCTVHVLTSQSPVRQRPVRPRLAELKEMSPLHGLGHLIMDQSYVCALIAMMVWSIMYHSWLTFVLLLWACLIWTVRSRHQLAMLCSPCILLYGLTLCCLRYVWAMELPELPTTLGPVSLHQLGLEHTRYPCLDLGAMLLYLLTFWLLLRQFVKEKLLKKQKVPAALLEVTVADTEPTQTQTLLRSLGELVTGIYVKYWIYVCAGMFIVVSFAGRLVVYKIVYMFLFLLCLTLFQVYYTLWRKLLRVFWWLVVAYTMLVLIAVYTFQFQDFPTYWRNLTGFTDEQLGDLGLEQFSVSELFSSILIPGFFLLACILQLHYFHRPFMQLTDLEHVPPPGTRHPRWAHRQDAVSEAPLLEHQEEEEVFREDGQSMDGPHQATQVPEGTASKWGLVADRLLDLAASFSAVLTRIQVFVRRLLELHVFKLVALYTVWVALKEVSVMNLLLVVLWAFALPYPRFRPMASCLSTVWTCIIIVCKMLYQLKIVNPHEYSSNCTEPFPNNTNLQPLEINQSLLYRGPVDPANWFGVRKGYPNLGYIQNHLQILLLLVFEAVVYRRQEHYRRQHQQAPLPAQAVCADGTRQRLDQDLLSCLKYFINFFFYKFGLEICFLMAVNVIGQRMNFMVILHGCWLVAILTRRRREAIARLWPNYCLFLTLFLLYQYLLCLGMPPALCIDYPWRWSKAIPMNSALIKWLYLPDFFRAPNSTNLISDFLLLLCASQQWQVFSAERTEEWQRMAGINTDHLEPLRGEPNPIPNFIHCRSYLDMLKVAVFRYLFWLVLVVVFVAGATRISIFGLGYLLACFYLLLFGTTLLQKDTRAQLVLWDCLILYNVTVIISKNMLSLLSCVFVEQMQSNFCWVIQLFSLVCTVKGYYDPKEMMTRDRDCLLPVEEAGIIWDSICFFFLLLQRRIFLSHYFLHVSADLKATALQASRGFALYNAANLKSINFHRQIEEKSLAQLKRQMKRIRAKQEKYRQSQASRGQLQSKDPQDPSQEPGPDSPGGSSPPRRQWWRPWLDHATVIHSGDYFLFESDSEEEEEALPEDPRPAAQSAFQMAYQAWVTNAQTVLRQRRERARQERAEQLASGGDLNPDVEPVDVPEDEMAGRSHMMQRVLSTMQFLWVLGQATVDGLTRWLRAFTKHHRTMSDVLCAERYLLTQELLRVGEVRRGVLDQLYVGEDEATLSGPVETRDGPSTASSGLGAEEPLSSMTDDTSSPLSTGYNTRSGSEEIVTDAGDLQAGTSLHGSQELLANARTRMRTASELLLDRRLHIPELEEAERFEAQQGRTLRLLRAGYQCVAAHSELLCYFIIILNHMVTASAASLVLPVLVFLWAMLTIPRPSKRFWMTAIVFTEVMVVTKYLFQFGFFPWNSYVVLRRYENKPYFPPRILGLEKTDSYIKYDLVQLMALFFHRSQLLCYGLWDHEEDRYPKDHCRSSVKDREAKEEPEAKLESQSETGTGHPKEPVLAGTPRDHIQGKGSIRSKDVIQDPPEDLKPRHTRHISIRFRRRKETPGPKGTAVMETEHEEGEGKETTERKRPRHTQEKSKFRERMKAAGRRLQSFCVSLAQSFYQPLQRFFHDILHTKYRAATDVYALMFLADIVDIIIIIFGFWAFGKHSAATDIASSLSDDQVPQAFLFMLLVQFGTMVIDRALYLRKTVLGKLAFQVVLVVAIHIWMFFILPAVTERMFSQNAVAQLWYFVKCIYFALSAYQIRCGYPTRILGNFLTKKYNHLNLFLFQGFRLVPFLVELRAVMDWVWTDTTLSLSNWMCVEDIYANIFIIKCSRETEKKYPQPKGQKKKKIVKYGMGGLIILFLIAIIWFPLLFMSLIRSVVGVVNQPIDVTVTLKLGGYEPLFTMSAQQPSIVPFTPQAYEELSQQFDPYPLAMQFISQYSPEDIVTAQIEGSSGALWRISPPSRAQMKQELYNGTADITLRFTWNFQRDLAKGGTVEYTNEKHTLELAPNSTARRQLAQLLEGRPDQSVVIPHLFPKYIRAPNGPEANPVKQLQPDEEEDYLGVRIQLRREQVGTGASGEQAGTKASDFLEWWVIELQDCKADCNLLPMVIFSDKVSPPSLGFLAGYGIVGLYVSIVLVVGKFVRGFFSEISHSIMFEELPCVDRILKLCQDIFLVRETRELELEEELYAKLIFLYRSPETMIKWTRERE

Question: For Clc1cccc(Cl)c1CSc1nnc(-c2cnccn2)s1 [Yoda1], which EC50 is on record?
Answer: Its EC50 is 29.4 ± 1.25 µM.

Reference: paper PMC8548913, “Piezo1–Pannexin1 complex couples force detection to ATP secretion in cholangiocytes” (The Journal of General Physiology, 2021)
